From US20210253626A1, “PRODRUGS OF FULVESTRANT” (KASHIV BIOSCIENCES, LLC, priority 2018, published 2021)
Values after ≈ are worked out from the molar mass of the structure shown. Where a name gives a salt, the structure may show the parent alone. Read-outs that look alike come from different tables or passages of the source.

Experiments:
[1] = Kinetic solubility (Solubility Test Procedure I); conditions: for Increase in solubility compare to fulvestrant (Fold): kinetic aqueous solubility at pH 7.4; for solubility at 4 h: phosphate buffer, 25 °C, pH 7.4, aqueous buffer, kinetic from dmso stock
Method: Solubility Test Procedure I:
(§1) A 50 mmol stock solution for each test compound was prepared using dimethyl sulfoxide. From this stock solution, a working solution of 1 mmol was prepared by diluting with dimethyl sulfoxide. The working solution of 1 mmol was then serially diluted using dimethyl sulfoxide. Then, 5-20 μl of stock solution is added to 1 ml of phosphate buffer solution of pH 7.4. The solution was then stirred for 4 h at 25° C. in order to reach equilibrium. After this incubation period, the solution was filtered using 0.45 micron PVDF injector filters to remove the insoluble fraction of the compound and subsequently filtrate is taken for quantification using UV Detector. The concentration of test sample was calculated using the linearity/calibration curve.

physchem [2] = conditions: thermodynamic from solid
Method: Solubility Test Procedure II:
(§2) Stock solutions of the test compounds and fulvestrant were prepared in phosphate buffered saline (PBS) pH 7.4 and sodium acetate buffer pH 4.0, which was incubated for 24 h at room temperature with constant mixing at 100 rpm in the same tube. After incubation, the tubes were centrifuged for 20 min. at 10000 rpm. Later 200 μL of sample was taken and filtered. The filtrate was analysed by HPLC-UV against 0.0012 mg/ml, 0.037 mg/mL, 0.3 mg/ml, 0.1 mg/ml and 1 mg/ml of dimethylsulfoxide (DMSO) stock.
(§3) Solubility (μg/ml)=[Peak area of sample/Peak area of standard]×Concentration of standard % Aqueous solubility: [Test solubility (μg/ml)/incubation concentration (μg/ml)]×100

[3] = Thermodynamic solubility (Solubility Test Procedure II); conditions: for solubility thermodynamic at 24 h: thermodynamic from solid
Method: Solubility Test Procedure II:
as §2, §3

physchem [4] = conditions: 25 °C, pH 7.4, aqueous buffer, kinetic from dmso stock
Method: Solubility Test Procedure I:
as §1

[5] = 4 h, pH 7.4
Method: Solubility Test Procedure I:
as §1

[6] = pH 4, aqueous buffer, Thermodynamic solubility (mg/mL) pH 4.0, sodium acetate buffer pH 4.0, 24 h room temperature, test compound concentration 1 mg/mL

Q: For `CCOP(=O)(OCC)Oc1ccc2c(c1)C[C@@H](CCCCCCCCC[S+]([O-])CCCC(F)(F)C(F)(F)F)[C@@H]1[C@@H]2CC[C@]2(C)[C@@H](O)CC[C@@H]12` (stereo partly drawn) [Example 7, diethyl ((7R,8R,9S,13S,14S,17S)-17-hydroxy-13-methyl-7-(9-((4,4,5,5,5-pentafluoropentyl)sulfinyl)nonyl)-7,8,9,11,12,13,14,15,16,17-decahydro-6H-cyclopenta[a]phenanthren-3-yl) phosphate], which “Increase in solubility compare to fulvestrant (Fold)” value (shortened to “Increase … (Fold)”) [1] is on record?
A: Its value is 35 Fold.

Q: What about the solubility at 4 h [1] of the same compound?
A: Its solubility at 4 h is 0.2 µM.

Q: Which solubility thermodynamic at 24 h (physchem [2]; [6]) does the source give for `CN1CCN(C(=O)Oc2ccc3c(c2)C[C@@H](CCCCCCCCC[S+]([O-])CCCC(F)(F)C(F)(F)F)[C@@H]2[C@@H]3CC[C@]3(C)[C@@H](O)CC[C@@H]23)CC1` (stereo partly drawn) [Example 4, (7R,8R,9S,13S,14S,17S)-17-hydroxy-13-methyl-7-(9-((4,4,5,5,5-pentafluoropentyl)sulfinyl)nonyl)-7,8,9,11,12,13,14,15,16,17-decahydro-6H-cyclopenta[a]phenanthren-3-yl 4-methylpiperazine-1-carboxylate] here?
A: Its solubility thermodynamic at 24 h is 790 µg/mL (≈ 1080 µM).

Q: What about the “Increase … (Fold)” value [1] of the same compound?
A: Its value is 97 Fold.

Q: And the solubility at 4 h [1]?
A: Its solubility at 4 h is 0.5 µM (≈ 0.366 µg/mL).

Q: What does the source list for `C[C@]12CC[C@@H]3c4ccc(O)cc4C[C@@H](CCCCCCCCC[S+]([O-])CCCC(F)(F)C(F)(F)F)[C@H]3[C@@H]1CC[C@@H]2O` (some centres unmarked) [Fulvestrant]?
A: solubility thermodynamic at 24 h ([3]; phosphate buffered saline (PBS), pH 7.4, aqueous buffer): 1.2 µg/mL (≈ 1.98 µM); solubility thermodynamic at 24 h ([3]; sodium acetate buffer, pH 4, aqueous buffer): 2.9 µg/mL (≈ 4.78 µM); solubility at 4 h [1]: 0.005 µM (≈ 0.00303 µg/mL)

Q: For `C[C@]12CC[C@@H]3c4ccc(OC(=O)CN5CCCC5)cc4C[C@@H](CCCCCCCCC[S+]([O-])CCCC(F)(F)C(F)(F)F)[C@H]3[C@@H]1CC[C@@H]2O` (stereo partly drawn) [Example 8, (7R,8R,9S,13S,14S,17S)-17-hydroxy-13-methyl-7-(9-((4,4,5,5,5-pentafluoropentyl)sulfinyl)nonyl)-7,8,9,11,12,13,14,15,16,17-decahydro-6H-cyclopenta[a]phenanthren-3-yl 2-(pyrrolidin-1-yl)acetate], which solubility at 4 h (physchem [4]) is on record?
A: Its solubility at 4 h is 17.1 µM (≈ 12.3 µg/mL).

Q: What about the “Increase … (Fold)” value [5] of the same compound?
A: Its value is 3500 Fold.

Q: With `CC(C)[C@H](NC(=O)Oc1ccc2c(c1)C[C@@H](CCCCCCCCC[S+]([O-])CCCC(F)(F)C(F)(F)F)[C@@H]1C2CC[C@]2(C)[C@@H](O)CC[C@@H]12)C(=O)O` (stereo partly drawn) [Example 45, (2S)-2-(((7R,8R,13S,14S,17S)-17-hydroxy-13-methyl-7-(9-(4,4,5,5,5-pentafluoropentylsulfinyl)nonyl)-7,8,9,11,12,13,14,15,16,17-decahydro-6H-cyclopenta[a]phenanthren-3-yloxy)carbonylamino)-3-methylbutanoic acid] as the compound, how does the solubility thermodynamic (physchem [2]; pH 7.4, aqueous buffer) read?
A: The solubility thermodynamic was 1250 µg/mL (≈ 1670 µM).

Q: Which solubility thermodynamic at 24 h (physchem [2]; pH 7.4, aqueous buffer, Thermodynamic solubility (mg/mL) pH 7.4, PBS pH 7.4, 24 h room temperature, test compound concentration 5 mg/mL) does the source give for `C[C@]12CC[C@@H]3c4ccc(OP(=O)(O)O)cc4C[C@@H](CCCCCCCCC[S+]([O-])CCCC(F)(F)C(F)(F)F)[C@H]3[C@@H]1CC[C@@H]2O` (stereo partly drawn) [Example 21, (7R,8R,9S,13S,14S,17S)-17-hydroxy-13-methyl-7-(9-((4,4,5,5,5-pentafluoropentyl)sulfinyl)nonyl)-7,8,9,11,12,13,14,15,16,17-decahydro-6H-cyclopenta[a]phenanthren-3-yl dihydrogen phosphate disodium] here?
A: The solubility thermodynamic at 24 h was over 5000 µg/mL.

Q: With `C[C@]12CCC3c4ccc(OCOP(=O)(O)O)cc4C[C@@H](CCCCCCCCC[S+]([O-])CCCC(F)(F)C(F)(F)F)[C@H]3[C@@H]1CC[C@@H]2O` (stereo partly drawn) [Example 44, ((7R,8R,13S,14S,17S)-17-hydroxy-13-methyl-7-(9-(4,4,5,5,5-pentafluoropentylsulfinyl)nonyl)-7,8,9,11,12,13,14,15,16,17-decahydro-6H-cyclopenta[a]phenanthren-3-yloxy)methyl dihydrogen phosphate] as the compound, how does the solubility thermodynamic at 24 h (physchem [2]; pH 4, aqueous buffer) read?
A: The solubility thermodynamic at 24 h was over 1000 µg/mL.

Q: What about the solubility thermodynamic at 24 h (physchem [2]; pH 7.4, aqueous buffer) of the same compound?
A: Its solubility thermodynamic at 24 h is over 15000 µg/mL.

Q: For `C[C@]12CC[C@@H]3c4ccc(OP(=O)(O)O)cc4C[C@@H](CCCCCCCCC[S+]([O-])CCCC(F)(F)C(F)(F)F)[C@H]3[C@@H]1CC[C@@H]2O` (stereo partly drawn) [Example 20, (7R,8R,9S,13S,14S,17S)-17-hydroxy-13-methyl-7-(9-((4,4,5,5,5-pentafluoropentyl)sulfinyl)nonyl)-7,8,9,11,12,13,14,15,16,17-decahydro-6H-cyclopenta[a]phenanthren-3-yl dihydrogen phosphate], which solubility thermodynamic (physchem [2]; pH 4, aqueous buffer) is on record?
A: Its solubility thermodynamic is 740 µg/mL.

Q: And the solubility thermodynamic (physchem [2]; pH 7.4, aqueous buffer)?
A: Its solubility thermodynamic is 1220 µg/mL.

Q: Which solubility at 4 h (physchem [4]) does the source give for `C[C@]12CC[C@@H]3c4ccc(OC(=O)CCC(=O)O)cc4C[C@@H](CCCCCCCCC[S+]([O-])CCCC(F)(F)C(F)(F)F)[C@H]3[C@@H]1CC[C@@H]2O` (stereo partly drawn) [Example 5, 4-(((7R,8R,9S,13S,14S,17S)-17-hydroxy-13-methyl-7-(9-((4,4,5,5,5-pentafluoropentyl)sulfinyl)nonyl)-7,8,9,11,12,13,14,15,16,17-decahydro-6H-cyclopenta[a]phenanthren-3-yl)oxy)-4-oxobutanoic acid] here?
A: The solubility at 4 h was 1.4 µM (≈ 0.99 µg/mL).

Q: And the “Increase … (Fold)” value [5]?
A: The value was 295 Fold.

Q: Which “Increase … (Fold)” value [1] does the source give for `C[C@]12CC[C@@H]3c4ccc(OC(=O)c5ccccc5O)cc4C[C@@H](CCCCCCCCC[S+]([O-])CCCC(F)(F)C(F)(F)F)[C@H]3[C@@H]1CC[C@@H]2O` (stereo partly drawn) [Example 6, (7R,8R,9S,13S,14S,17S)-17-hydroxy-13-methyl-7-(9-((4,4,5,5,5-pentafluoropentyl)sulfinyl)nonyl)-7,8,9,11,12,13,14,15,16,17-decahydro-6H-cyclopenta[a]phenanthren-3-yl 2-hydroxybenzoate] here?
A: The value was 562 Fold.

Q: And the solubility at 4 h [1]?
A: Its solubility at 4 h is 2.7 µM (≈ 1.96 µg/mL).

Q: Which solubility at 4 h (physchem [4]) does the source give for `C[C@]12CC[C@@H]3c4ccc(OC(=O)CN5CCOCC5)cc4C[C@@H](CCCCCCCCC[S+]([O-])CCCC(F)(F)C(F)(F)F)[C@H]3[C@@H]1CC[C@@H]2O` (stereo partly drawn) [Example 10, (7R,8R,9S,13S,14S,17S)-17-hydroxy-13-methyl-7-(9-((4,4,5,5,5-pentafluoropentyl)sulfinyl)nonyl)-7,8,9,11,12,13,14,15,16,17-decahydro-6H-cyclopenta[a]phenanthren-3-yl 2-morpholinoacetate] here?
A: The solubility at 4 h was 0.2 µM (≈ 0.147 µg/mL).

Q: What about the “Increase … (Fold)” value [5] of the same compound?
A: The value was 32 Fold.

Q: With `C[C@]12CC[C@@H]3c4ccc(OC(=O)N5CCC(N6CCCCC6)CC5)cc4C[C@@H](CCCCCCCCC[S+]([O-])CCCC(F)(F)C(F)(F)F)[C@H]3[C@@H]1CC[C@@H]2O` (stereo partly drawn) [Example 29, (7R,8R,9S,13S,14S,17S)-17-hydroxy-13-methyl-7-(9-((4,4,5,5,5-pentafluoropentyl)sulfinyl)nonyl)-7,8,9,11,12,13,14,15,16,17-decahydro-6H-cyclopenta[a]phenanthren-3-yl [1,4′-bipiperidine]-1′-carboxylate hydrochloride] as the compound, how does the “Thermodynamic solubility (mg/mL) pH 4.0” value ([3]; sodium acetate buffer pH 4.0, 24 h room temperature, test compound concentration 1 mg/mL, hydrochloride) read?
A: Its value is 0.75 mg/mL.

Q: With `CN1CCC(CC(=O)Oc2ccc3c(c2)C[C@@H](CCCCCCCCC[S+]([O-])CCCC(F)(F)C(F)(F)F)[C@@H]2[C@@H]3CC[C@]3(C)[C@@H](O)CC[C@@H]23)CC1` (stereo partly drawn) [Example 15, (7R,8R,9S,13S,14S,17S)-17-hydroxy-13-methyl-7-(9-((4,4,5,5,5-pentafluoropentyl)sulfinyl)nonyl)-7,8,9,11,12,13,14,15,16,17-decahydro-6H-cyclopenta[a]phenanthren-3-yl 2-(1-methylpiperidin-4-yl)acetate] as the compound, how does the solubility thermodynamic at 24 h (physchem [2]; pH 4, aqueous buffer) read?
A: The solubility thermodynamic at 24 h was 630 µg/mL (≈ 845 µM).

Q: For `CN(C)CC(=O)Oc1ccc2c(c1)C[C@@H](CCCCCCCCC[S+]([O-])CCCC(F)(F)C(F)(F)F)[C@@H]1[C@@H]2CC[C@]2(C)[C@@H](O)CC[C@@H]12` (stereo partly drawn) [Example 1, (7R,8R,9S,13S,14S,17S)-17-hydroxy-13-methyl-7-(9-((4,4,5,5,5-pentafluoropentyl)sulfinyl)nonyl)-7,8,9,11,12,13,14,15,16,17-decahydro-6H-cyclopenta[a]phenanthren-3-yl dimethylglycinate], which solubility at 4 h (physchem [4]) is on record?
A: Its solubility at 4 h is 0.04 µM (≈ 0.0277 µg/mL).

Q: What about the “Increase … (Fold)” value [5] of the same compound?
A: Its value is 8 Fold.

Q: Which solubility thermodynamic at 24 h (physchem [2]; pH 4, aqueous buffer, Thermodynamic solubility (mg/mL) pH 4.0, sodium acetate buffer pH 4.0, 24 h room temperature, test compound concentration 2 mg/mL) does the source give for `CN1CCCN(C(=O)Oc2ccc3c(c2)C[C@@H](CCCCCCCCC[S+]([O-])CCCC(F)(F)C(F)(F)F)[C@@H]2[C@@H]3CC[C@]3(C)[C@@H](O)CC[C@@H]23)CC1` (stereo partly drawn) [Example 19, (7R,8R,9S,13S,14S,17S)-17-hydroxy-13-methyl-7-(9-((4,4,5,5,5-pentafluoropentyl)sulfinyl)nonyl)-7,8,9,11,12,13,14,15,16,17-decahydro-6H-cyclopenta[a]phenanthren-3-yl 4-methyl-1,4-diazepane-1-carboxylate] here?
A: Its solubility thermodynamic at 24 h is 1050 µg/mL (≈ 1410 µM).

Q: Which results are given for `C[C@]12CC[C@@H]3c4ccc(OC(=O)N5CCC(N6CCCCC6)CC5)cc4C[C@@H](CCCCCCCCC[S+]([O-])CCCC(F)(F)C(F)(F)F)[C@H]3[C@@H]1CC[C@@H]2O` (stereo partly drawn) [Example 9, (7R,8R,9S,13S,14S,17S)-17-hydroxy-13-methyl-7-(9-((4,4,5,5,5-pentafluoropentyl)sulfinyl)nonyl)-7,8,9,11,12,13,14,15,16,17-decahydro-6H-cyclopenta[a]phenanthren-3-yl[1,4′-bipiperidine]-1′-carboxylate]?
A: solubility thermodynamic at 24 h (physchem [2]; [6]): 700 µg/mL (≈ 874 µM); Increase in solubility compare to fulvestrant (Fold) [1]: 22 Fold; solubility at 4 h [1]: 0.1 µM (≈ 0.0801 µg/mL)

Q: What does the source list for `C[C@]12CC[C@@H]3c4ccc(OC(=O)CN5CCCCC5)cc4C[C@@H](CCCCCCCCC[S+]([O-])CCCC(F)(F)C(F)(F)F)[C@H]3[C@@H]1CC[C@@H]2O` (stereo partly drawn) [Example 3, (7R,8R,9S,13S,14S,17S)-17-hydroxy-13-methyl-7-(9-((4,4,5,5,5-pentafluoropentyl)sulfinyl)nonyl)-7,8,9,11,12,13,14,15,16,17-decahydro-6H-cyclopenta[a]phenanthren-3-yl 2-(piperidin-1-yl)acetate hydrochloride]?
A: Increase in solubility compare to fulvestrant (Fold) [1]: 669 Fold; solubility at 4 h [1]: 3.3 µM
